Experimental data taken from patent US6765127B1, “Invertebrate intestinal mucin cDNA and related products and methods” (Boyce Thompson Institute for Plant Research, Inc., priority 1998, dated 2004).

Experiments:
[1] = tested on: T. ni larvae; assay: Feeding T. ni larvae artificial diet containing Calcofluor; type: in vivo; settings: artificial diet containing 1% Calcofluor
[2] = tested on: T. ni larvae; assay: Baculovirus infection of Calcofluor treated larvae; type: in vivo; settings: Calcofluor disrupted PM formation
[3] = tested on: Lymantria dispar; assay: PM formation with Calcofluor; type: in vivo
[4] = tested on: Hyphantria cunea; assay: PM formation with Calcofluor; type: in vivo
[5] = tested on: T. ni larvae; assay: PM formation in larvae fed Calcofluor; type: in vivo; settings: Calcofluor fed to T. ni larvae
Description: (§1) Calcofluor is a fluorescent dye with high chitin binding affinity. It has been utilized in studies on the formation of fungi and algal cell walls which are protective structures containing chitin and proteins. Calcofluor interferes with the cell wall formation by binding to nascent chitin molecules during cell wall formation, thus blocking chitin fibril assembly. Similar investigations on insect midgut chitin fibril formation using the chitin binding agent Calcofluor had not been approached until our recent studies were carried out. […] These isolated proteins have high chitin binding properties and are normally not extractable from fully formed PMs by detergents or extreme pH conditions. […] We believe that this phenomenon is due to the disruption of chitin fibril formation by the binding of Calcofluor to nascent chitin molecules as observed in other organisms.

[6] = tested on: T. ni PMs; assay: Extraction of chitin binding proteins from dissected PMs with Calcofluor
Description: as §1

[7] = tested on: Helicoverpa zea; assay: PM formation with Calcofluor; type: in vivo
[8] = tested on: Pseudaletia unipuncta; assay: PM formation with Calcofluor; type: in vivo
[9] = tested on: endogenous midgut proteases; assay: Resistance of IIM in PMs to endogenous digestive proteases; design: species or system T. ni
Description: The stability of the IIM when exposed to degestive enzymes for long periods is aided by the O-linked carbohydrate moieties found in associated glycoproteins. […] Control treatments using PMS with inactivated or inhibited endogenous midgut proteases, confirmed that the degradation of IIM in the presence of O-glycosidase was a result of hydrolysis by endogenous digestive proteases, following removal of the protective carbohydrate moiety, galactose β(1-3) N-acetylgalactosamine.

[10] = tested on: mucin isolated from Pseudaletia unipuncta peritrophic membranes
[11] = tested on: T1, invertebrate intestinal mucin (IIM) from Trichoplusia ni peritrophic membranes (native protein)
T1 sequence: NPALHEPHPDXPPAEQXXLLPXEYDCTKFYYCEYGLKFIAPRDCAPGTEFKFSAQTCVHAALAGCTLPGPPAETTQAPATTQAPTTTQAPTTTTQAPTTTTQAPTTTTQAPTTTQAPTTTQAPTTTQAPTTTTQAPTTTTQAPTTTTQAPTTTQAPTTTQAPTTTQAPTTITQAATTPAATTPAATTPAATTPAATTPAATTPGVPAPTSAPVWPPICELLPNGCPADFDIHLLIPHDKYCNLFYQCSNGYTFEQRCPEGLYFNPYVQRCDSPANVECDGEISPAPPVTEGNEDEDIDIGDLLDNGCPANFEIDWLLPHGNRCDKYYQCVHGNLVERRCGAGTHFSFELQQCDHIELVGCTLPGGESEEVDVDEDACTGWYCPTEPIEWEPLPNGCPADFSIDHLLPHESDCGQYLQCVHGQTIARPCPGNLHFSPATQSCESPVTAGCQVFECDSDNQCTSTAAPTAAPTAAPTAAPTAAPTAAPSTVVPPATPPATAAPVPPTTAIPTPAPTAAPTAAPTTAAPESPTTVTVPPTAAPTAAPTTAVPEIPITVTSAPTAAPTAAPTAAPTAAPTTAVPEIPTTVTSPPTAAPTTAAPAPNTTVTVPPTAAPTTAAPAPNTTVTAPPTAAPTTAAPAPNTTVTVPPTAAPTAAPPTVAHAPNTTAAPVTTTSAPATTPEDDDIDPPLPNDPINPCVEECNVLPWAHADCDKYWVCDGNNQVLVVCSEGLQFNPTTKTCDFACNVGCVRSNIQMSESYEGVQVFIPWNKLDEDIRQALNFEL

[12] = target: TnGV enhancin (Trichoplusia ni granulosis virus, UniProt P29998); settings: 10 mM EDTA in incubation buffer
Method: The degradation of IIM was examined by SDS/PAGE analysis. A parallel treatment of IIM without enhancin was included as a control. […] To confirm the metalloprotease nature of enhancin, IIM was incubated with TnGV enhancin in the presence of 10 mM EDTA.

Sequence of TnGV enhancin (P29998 whole entry): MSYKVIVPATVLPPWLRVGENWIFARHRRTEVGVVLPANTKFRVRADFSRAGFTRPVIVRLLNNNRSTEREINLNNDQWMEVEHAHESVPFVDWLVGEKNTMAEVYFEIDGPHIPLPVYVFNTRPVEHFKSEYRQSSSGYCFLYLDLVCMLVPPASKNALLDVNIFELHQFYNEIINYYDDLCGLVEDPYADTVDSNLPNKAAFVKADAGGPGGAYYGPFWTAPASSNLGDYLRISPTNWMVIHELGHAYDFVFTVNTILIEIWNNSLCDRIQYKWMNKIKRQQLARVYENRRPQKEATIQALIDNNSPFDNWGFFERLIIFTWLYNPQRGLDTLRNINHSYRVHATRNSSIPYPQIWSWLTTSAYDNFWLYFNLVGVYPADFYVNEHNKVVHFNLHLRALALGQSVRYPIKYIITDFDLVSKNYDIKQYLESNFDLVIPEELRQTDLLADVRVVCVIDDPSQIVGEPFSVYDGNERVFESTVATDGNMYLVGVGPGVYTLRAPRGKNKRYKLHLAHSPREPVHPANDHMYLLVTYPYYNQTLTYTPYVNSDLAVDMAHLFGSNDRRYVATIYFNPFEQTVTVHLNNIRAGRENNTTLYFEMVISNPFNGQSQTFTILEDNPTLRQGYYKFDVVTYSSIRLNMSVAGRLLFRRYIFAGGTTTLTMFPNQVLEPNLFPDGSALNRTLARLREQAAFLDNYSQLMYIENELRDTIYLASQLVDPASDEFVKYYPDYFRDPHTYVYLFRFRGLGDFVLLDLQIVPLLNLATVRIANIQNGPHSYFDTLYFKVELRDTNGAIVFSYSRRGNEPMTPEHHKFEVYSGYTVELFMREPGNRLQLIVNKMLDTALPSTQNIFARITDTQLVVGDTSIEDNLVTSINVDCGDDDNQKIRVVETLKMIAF

Q: With `O=S(=O)([O-])c1cc(Nc2nc(Nc3ccccc3)nc(N(CCO)CCO)n2)ccc1C=Cc1ccc(Nc2nc(Nc3ccccc3)nc(N(CCO)CCO)n2)cc1S(=O)(=O)[O-].[Na+].[Na+]` [Calcofluor] as the compound, how does the insect mortality [1] read?
A: insect mortality

Q: And the larval growth [1]?
A: significantly slowed the growth

Q: And the “baculovirus infections in the larvae” value [2]?
A: significantly increased baculovirus infections

Q: What about the PM disruption/inhibition [3] of the same compound?
A: further verified

Q: What about the PM disruption/inhibition [4] of the same compound?
A: further verified

Q: What about the PM formation [5] of the same compound?
A: completely inhibited and/or disrupted PM formation

Q: And the “extraction of chitin binding proteins from dissected PMs” value [6]?
A: extract and solubilize chitin binding proteins

Q: And the PM disruption/inhibition [7]?
A: further verified

Q: What about the PM disruption/inhibition [8] of the same compound?
A: further verified

Q: With “IIM: novel invertebrate intestinal mucin from T. ni peritrophic membranes; isoforms IIM14 and IIM22” as the compound, how does the “degradation of IIM in PMs by endogenous digestive proteases” value ([9]; in the presence of O-glycosidase) read?
A: quickly degraded

Q: And the “degradation of IIM in PMs by endogenous digestive proteases” value ([9]; sixteen hour incubation)?
A: no degradation

Q: With “Trichoplusia ni granulosis virus (TnGV) enhancin” as the compound, how does the “degradation of the mucin” value [10] read?
A: This mucin is also degraded by the TnGV enhancin

Q: What about the “degradation of IIM examined by SDS/PAGE (in vitro, 1.25 µg/ml enhancin, 37° C., 3 hours or overnight)” value [11] of the same compound?
A: Incubation of IIM with TnGV enhancin showed that the enhancin had activity against IIM.

Q: What about the “digestion of IIM in the presence of 10 mM EDTA” value [11] of the same compound?
A: The addition of 10 mM EDTA to the incubation buffer blocked the digestion of the IIM and confirmed the metalloprotease nature of enhancin.

Q: Which “effect on digestion of IIM by TnGV enhancin” value [12] does the source give for `O=C(O)CN(CCN(CC(=O)O)CC(=O)O)CC(=O)O` [EDTA] here?
A: blocked the digestion of the IIM
